23 molecules from patent US20100256357A1, “HETEROCYCLES USEFUL AS INHIBITORS OF CARBONIC ANHYDRASE” (Agouron Pharmaceuticals, Inc., priority 2006, published 2010) can be followed below.

Where two headings read alike, the source gives them in different places.

The target of the assay is T1, human CA-II (Homo sapiens, UniProt P00918).
T1 construct: purchased Sigma-Aldrich C6165
The experiment in a line: Carbonic Anhydrase-II (CA-II) Fluorimetric Assay-IC50 Determination. The format is biochemical. The following applies: for inhibition at 0.1 µM: at 100 nM (c7); for inhibition at 0.1 µM / inhibition at 0.01 µM: read-out: CA-II % inhibition at concentration of column 7; for inhibition at 0.01 µM: at 10 nM (c7). The procedure: Carbonic Anhydrase-II (CA-II) Fluorimetric Assay-IC50 Determination
Compounds were diluted in DMSO at the concentration of 1 mM, then 50 μM and transferred to a 96-well plate for further dilutions (1:3 dilution, 11 points) in duplicate. Highest final concentration of compound in this CA-II Fluorimetric assay is 1 μM. Assays were conducted in a final volume of 100 μL in 50 mM Tris/HCl (pH 7.6), 100 mM Na2SO4 and 0.005% Tween-20 in a 96-well black assay plate. Fluorescein diacetate was used as the substrate. Enzyme inhibition was determined by pipetting 8 μL of human CA-II (5 nM, from Sigma-Aldrich, product #: C6165) into assay plate contained 2 μL of compound and 2 μL of substrate (10 μM) in 88 μL of assay buffer. The rate of the hydrolysis of fluorescein diacetate were measured spectrophometrically at 488 nm (excitation), 538 nm (emission) and 530 nm (cutoff) using a Molecular Devices SpectraMax M2 fluorescence reader at 25° C.

The mark [1] stands for this setting: Kd ND, IC50 given instead, read-out: CA-II IC50 (where Kd is ND).
Setting [2] is: given instead of Kd (ND), read-out: CA-II IC50.

In the case of `CN(C(=O)c1nc(Cc2ccccc2)n(-c2ccc(S(N)(=O)=O)cc2)n1)C(C1CC1)C1CC1` [Example R-28, 1-[4-(aminosulfonyl)phenyl)-5-benzyl-N-(dicyclopropylmethyl)-N-methyl-1H-124-triazole-3-carboxamide], the inhibition at 0.1 µM worked out at 99%.

Consider `NS(=O)(=O)c1ccc(-n2nc(C(=O)N3CCC(c4ccccn4)C3)nc2Cc2ccccc2)cc1` (stereo not drawn) [Example R-55, 4-(5-benzyl-3-[(3-pyridin-2-ylpyrrolidin-1-yl)carbonyl]-1H-124-triazol-1-yl)benzenesulfonamide], for which the inhibition at 0.01 µM came out at 97%.

The term IC50 denotes the concentration needed to halve the response being measured. On to `CC(C)C1CCCCN1C(=O)c1nc(Cc2ccccc2)n(-c2ccc(S(N)(=O)=O)cc2)n1` (stereo not drawn) [Example R-104], for which the IC50 under setting [1] came to 3.51 nM.

As to `CCCN(C(=O)c1nc(Cc2ccccc2)n(-c2ccc(S(N)(=O)=O)cc2)n1)[C@@H](C)CO` [Example R-29, 1-[4-(aminosulfonyl)phenyl]-5-benzyl-N-[(1S)-2-hydroxy-1-methylethyl]-N-propyl-1H-124-triazole-3-carboxamide], the inhibition at 0.1 µM came out at 98%.

As for `CCc1nc(CN(C)C(=O)c2nc(Cc3ccccc3)n(-c3ccc(S(N)(=O)=O)cc3)n2)no1` [Example R-70, 1-[4-(aminosulfonyl)phenyl]-5-benzyl-N-[(5-ethyl-124-oxadiazol-3-yl)methyl]-N-methyl-1H-124-triazole-3-carboxamide], the inhibition at 0.01 µM worked out at 94%. The IC50 under setting [2] was found to be 3.06 nM.

Turning to `Cc1cc(C)n(CCN(C)C(=O)c2nc(Cc3ccccc3)n(-c3ccc(S(N)(=O)=O)cc3)n2)n1` [Example R-66, 1-[4-(aminosulfonyl)phenyl]-5-benzyl-N-[2-(35-dimethyl-1H-pyrazol-1-yl)ethyl]-N-methyl-1H-124-triazole-3-carboxamide], the inhibition at 0.01 µM amounted to 88%. For the same molecule, under setting [2], the IC50 came to 3.55 nM.

In the case of `CN(C(=O)c1nc(Cc2ccccc2)n(-c2ccc(S(N)(=O)=O)cc2)n1)C1CCCC1` [Example R-30, 1-[4-(aminosulfonyl)phenyl]-5-benzyl-N-cyclopentyl-N-methyl-1H-124-triazole-3-carboxamide], the inhibition at 0.1 µM stood at 100%. Further, the IC50 under setting [2] is 2.45 nM.

With `CCCN(CC1CCCO1)C(=O)c1nc(Cc2ccccc2)n(-c2ccc(S(N)(=O)=O)cc2)n1` (stereo not drawn) [Example R-95, 1-[4-(aminosulfonyl)phenyl]-5-benzyl-N-propyl-N-(tetrahydrofuran-2-ylmethyl)-1H-124-triazole-3-carboxamide], the IC50 under setting [1] came to 3.35 nM.

For `CN(CC1CCCCO1)C(=O)c1nc(Cc2ccccc2)n(-c2ccc(S(N)(=O)=O)cc2)n1` (stereo not drawn) [Example R-106, 1-[4-(aminosulfonyl)phenyl]-5-benzyl-N-methyl-N-(tetrahydro-2H-pyran-2-ylmethyl)-1H-124-triazole-3-carboxamide], the IC50 under setting [1] stood at 3.28 nM.

On to `NS(=O)(=O)c1ccc(-n2nc(C(=O)N3C[C@@H](F)[C@H](F)C3)nc2Cc2ccccc2)cc1` [Example R-111, 4-(5-benzyl-3-{[(3R4R)-34-difluoropyrrolidin-1-yl]carbonyl}-1H-124-triazol-1-yl)benzenesulfonamide], for which the IC50 under setting [1] came to 3.14 nM.

As to `NS(=O)(=O)c1ccc(-n2nc(C(=O)N3CCC(c4cccnc4)C3)nc2Cc2ccccc2)cc1` (stereo not drawn) [Example R-69, 4-{5-benzyl-3-[(3-pyridin-3-ylpyrrolidin-1-yl)carbonyl]-1H-124-triazol-1-yl}benzenesulfonamide], the inhibition at 0.01 µM came out at 97%. Under setting [2], the 50% inhibitory concentration (IC50) came out at 3.49 nM.

For the molecule `CC(C)CCN(C)C(=O)c1nc(Cc2ccccc2)n(-c2ccc(S(N)(=O)=O)cc2)n1` [Example R-31, 1-[4-(aminosulfonyl)phenyl]-5-benzyl-N-methyl-N-(3-methylbutyl)-1H-124-triazole-3-carboxamide], the inhibition at 0.1 µM stood at 100%. Under setting [2], the half-inhibitory concentration (IC50) was 3.03 nM.

Turning to `CN(Cc1n[nH]c2c1CCCC2)C(=O)c1nc(Cc2ccccc2)n(-c2ccc(S(N)(=O)=O)cc2)n1` [Example R-44, 1-[4-(aminosulfonyl)phenyl]-5-benzyl-N-methyl-N-(4567-tetrahydro-1H-indazol-3-ylmethyl)-1H-124-triazole-3-carboxamide], the inhibition at 0.01 µM stood at 93%.

For the molecule `CCc1ccc(CN(C)C(=O)c2nc(Cc3ccccc3)n(-c3ccc(S(N)(=O)=O)cc3)n2)cc1` [Example R-37, 1-[4-(aminosulfonyl)phenyl]-5-benzyl-N-(4-ethylbenzyl)-N-methyl-1H-124-triazole-3-carboxamide], the inhibition at 0.1 µM came to 99%. Also, under setting [2], the IC50 worked out at 2.89 nM.

Take `NS(=O)(=O)c1ccc(-n2nc(C(=O)N3CCOCC3)nc2Cc2ccccc2)cc1` [Example R-32, 4-[5-benzyl-3-(morpholin-4-ylcarbonyl)-1H-124-triazol-1-yl]benzenesulfonamide]: the inhibition at 0.1 µM amounted to 98%. Under setting [2], the IC50 turned out to be 3.56 nM.

As for `NS(=O)(=O)c1ccc(-n2nc(C(=O)N3CCCC3Cc3cccnc3)nc2Cc2ccccc2)cc1` (stereo not drawn) [Example R-68, 4-(5-benzyl-3-{[2-(pyridin-3-ylmethyl)pyrrolidin-1-yl]carbonyl}-1H-124-triazol-1-yl)benzenesulfonamide], the inhibition at 0.01 µM is 92%. Further, the IC50 under setting [2] was 3.75 nM.

For the molecule `Cc1cc(CN(C)C(=O)c2nc(Cc3ccccc3)n(-c3ccc(S(N)(=O)=O)cc3)n2)n[nH]1` [Example R-50, 1-[4-(aminosulfonyl)phenyl]-5-benzyl-N-methyl-N-[(5-methyl-1H-pyrazol-3-yl)methyl]-1H-124-triazole-3-carboxamide], the inhibition at 0.01 µM stood at 95%.

For the molecule `CCN(Cc1ccccc1)C(=O)c1nc(Cc2ccccc2)n(-c2ccc(S(N)(=O)=O)cc2)n1` [Example R-102, 1-[4-(aminosulfonyl)phenyl]-N5-dibenzyl-N-ethyl-1H-124-triazole-3-carboxamide], the IC50 under setting [1] was 3 nM.

`CN(Cc1nc2ccc(F)cc2[nH]1)C(=O)c1nc(Cc2ccccc2)n(-c2ccc(S(N)(=O)=O)cc2)n1` [Example R-49, 1-[4-(aminosulfonyl)phenyl]-5-benzyl-N-[(6-fluoro-1H-benzimidazol-2-yl)methyl]-N-methyl-1H-124-triazole-3-carboxamide]: the inhibition at 0.01 µM is 96%.

`Cc1nc(CN(C)C(=O)c2nc(Cc3ccccc3)n(-c3ccc(S(N)(=O)=O)cc3)n2)cs1` [Example R-60, 1-[4-(aminosulfonyl)phenyl]-5-benzyl-N-methyl-N-[(2-methyl-13-thiazol-4-yl)methyl]-1H-124-triazole-3-carboxamide]: the inhibition at 0.01 µM was 92%.

Turning to `NS(=O)(=O)c1ccc(-n2nc(C(=O)N3CCCN(C=O)CC3)nc2Cc2ccccc2)cc1` [Example R-27, 4-(5-benzyl-3-[(4-formyl-14-diazepan-1-yl)carbonyl]-1H-124-triazol-1-yl)benzenesulfonamide], the inhibition at 0.1 µM worked out at 99%.

Take `CCN(CC)CCN(CC)C(=O)c1nc(Cc2ccccc2)n(-c2ccc(S(N)(=O)=O)cc2)n1` [Example R-39, 1-[4-(aminosulfonyl)phenyl]-5-benzyl-N-[2-(diethylamino)ethyl]-N-ethyl-1H-124-triazole-3-carboxamide]: the inhibition at 0.1 µM came out at 97%. Moreover, the IC50 under setting [2] was 3.62 nM.

Regarding `CC(C)CN(CC(C)C)C(=O)c1nc(Cc2ccccc2)n(-c2ccc(S(N)(=O)=O)cc2)n1` [Example R-40, 1-[4-(aminosulfonyl)phenyl]-5-benzyl-NN-diisobutyl-1H-124-triazole-3-carboxamide], the inhibition at 0.1 µM is 98%. Also, the IC50 under setting [2] stood at 3.34 nM.
